One experiment concerns C. elegans mutant IH718. In words: Growth of heme resistant mutant in CeHR medium. Details: key: + = wild type equivalent In growth; ND: No growth. Type of experiment: in vivo, Caenorhabditis elegans. On the procedure: To further increase the stringency of our genetic screen we split the contents from each 800 μM hemin selection flasks into two flasks containing either 800 μM or 1000 μM hemin. This allowed us to use another tier of positive selection to identify mutants with greater resistance to heme toxicity. Mutants from each flask were isolated and treated as a separate entity by giving an identification number based on the Genetic Nomenclature Guidelines used for C. elegans (http://biosci.umn.edu/CGC/Nomenclature/nomenguid.htm). To eliminate EMS-induced spurious mutations that could result in false positive, the mutants were outcrossed to wild-type N2 males. After five outcrosses, which replaces ˜97% of the mutant genome, mutants that bred true were selected for further analysis. Using this procedure, we isolated 13 individual mutants that were resistant to heme toxicity. […]
Worm Culture and Growth Assays. […] Worm growth was monitored each day and an aliquot was obtained for counting by microscopy usually at days 3, 6, and 9. The worms in each well were counted twice and each growth condition was analyzed in triplicate. P values for statistical significance were calculated utilizing a one-way ANOVA with Student-Newman-Keuls multiple comparison test using GraphPad Instat version 3.01. […]

Another experiment concerns R02E12.6. In words: qRT-PCR validation of heme-regulated genes (2^-ΔΔCt method). The format is in vivo, Caenorhabditis elegans. Particulars: low heme. On the procedure:
The initial statistical analysis of the Affymetrix genome array was performed at the NIDDK microarray facility using Affymetrix MAS 5.0 Suite software. […] To further narrow-down candidate genes, we eliminated 58 genes that are involved in worm developmental processes by comparing the data from the gene chip to the microarray data of S. Kim. See Kim, S. K. et al., Science 293, 2087-2092 (2001). […] These 280 genes were then sorted based on different categories of changes in gene expression (up, down or no change) seen in 4 μM versus 500 μM samples using 20 μM dataset as the baseline (Table XX). Protein sequence motif analysis (BLOCKS, PRINTS, Pfam), transmembrane (TM-HMM) and secondary structure predictions (ExPASy) proteomics tools are performed to identify domains and motifs within the predicted ORFs […] and the housekeeping gene Ct value: ΔCt=Ctsample−Ctreference. Relative mRNA abundance represents the difference between ΔCt values for a pair of conditions, i.e., 4 μM versus […]. Relative mRNA expression is exponential and defined by the formula [Mrna]=2^−ΔΔCt. […] The standard error for ΔΔCt will be calculated by the method of Livak and Schmittgen. […]
In general terms: Quantitative PCR measures a nucleic acid by following its amplification.

Some results are limits rather than exact numbers.

For the substance hemin chloride, the “Growth 1.6 μM hemin” value with C. elegans mutant IH718 is reported as “+”. Further, the “upregulation of R02E12.6 by qRT-PCR” value with R02E12.6 is recorded as greater than 40 fold.

For the origin of these results see patent US20060206946A1, “Method of disrupting heme transport in nematodes and of modelling and evaluating eukaryotic heme transport” (priority 2005, published 2006).
